In patent publication US11407748B2, “Substituted pyrido[1,2-a]pyrimidines and pyrazino[1,2-a]pyrimidines for enhancing AMPA receptor function” (Takeda Pharmaceutical Company Limited, priority 2017, dated 2022):

Target: T1, hGluR1 flip (Homo sapiens, UniProt P42261)
T1 construct: expressed in transfected cells; host or cells: CHO-K1
Assay: AMPA receptor function-enhancing activity using calcium influx as index
Type: cell-based
Details: test compound 30 μM with 3 mM glutamic acid; CHO-K1/GluR1 flip/stargazin-expressing cells; 100% = 3 mM glutamic acid + 300 μM cyclothiazide, 0% = 3 mM glutamic acid alone
From the text: Experimental Example 1 Measurement Method of AMPA Receptor Function-Enhancing Activity of Compound Using Calcium Influx as Index
(1) Construction of Expression Gene
Human GluR^1 flip cDNA was amplified by PCR method using forward primer […] (SEQ ID NO: 1) and reverse primer […] (SEQ ID NO: 2) artificially synthesized using human brain-derived cDNA (BD Bioscience) as a template. The amplified product was digested with restriction enzymes EcoRI, NotI (TAKARA SHUZO CO. LTD.) and incorporated into the same site of pcDNA3.1 (+) (Invitrogen) to construct pcDNA3.1(+)/human GluR1 flip gene. Human stargazin cDNA was amplified by PCR method using forward primer […] (SEQ ID NO: 3) and reverse primer […] (SEQ ID NO: 4) artificially synthesized using human hippocampus cDNA as a template. The amplified product was digested with restriction enzymes XhoI, BamHI (TAKARA SHUZO CO. LTD.) and incorporated into the same site of pcDNA3.1(−) (Invitrogen) to construct pcDNA3.1 Zeo(−)/human stargazing gene.
(2) Construction of GluR1 Flip/Stargazin Expressing Cell
CHO-K1 cells passaged in a culture medium (Ham's F12 medium (Invitrogen) added with 10% inactivated fetal bovine serum (Morgate) and penicillin, streptomycin (Invitrogen)) were detached using 0.05% trypsin and 0.53 mM EDTA (Invitrogen) diluted with D-PBS(−). The detached cells were suspended in a culture medium, and recovered by centrifugation at 1,000 rpm. The recovered cells were re-suspended in D-PBS(−) and added into 0.4 cm electroporation cuvette (BioRad). pcDNA3.1(+)/human GluR1 flip gene (5 μg) and pcDNA3.1 Zeo(−)/human stargazin gene (15 μg) were added, and introduced into CHO-K1 cells under the conditions of 950 μFd, […] and using Gene Pulser II (BioRad). The introduced cells were cultured overnight in a culture medium. The next day, using a selection medium (culture medium added with zeocin (Invitrogen) at 250 μg/mL), the cells were plated in a 96 well plate at 250 cells/well. The clones showing drug resistance were selected, and GluR1 flip/stargazin expression clones were selected by an assay method shown below using calcium influx as an index.
(3) Measurement Method of AMPA Receptor Function-Enhancing Activity of Compound, Using Calcium Influx as an Index
CHO-K1/GluR1 flip/stargazin-expressing cells were plated on a 384 well black bottom transparent plate, and cultured for 2 days in a CO2 incubator (SANYO ELECTRIC Co. Ltd.) at 37° C. The medium of the cell plate was removed. A calcium indicator (Calcium5 Assay Kit, Molecular Devices) was diluted with an assay buffer (HESS (Thermo Fisher Scientific), 0.1% BSA (Merck Millipoer) and 10 mM HEPES (Thermo Fisher Scientific)), and 1.25 mM probenecid (Dojindo Laboratories) was added thereto. The mixture prepared above was added at 30 μL/well (100 μL/well in case of 96 wells) to the well, and the well was left standing in 37° C., CO2 incubator for 1 hr. The cell plate was set in CellLux (PerkinElmer), a mixture (15 μL) (50 μL/well in case of 96 wells) of 9 mM glutamic acid (final concentration 3 mM) diluted with an assay buffer and a test compound (test compound concentration 30 μM) was added thereto, and variation in the amount of fluorescence was measured for 3 min. The variation of fluorescence level of a well added with final concentration 3 mM of glutamic acid and 300 μM cyclothiazide (TOCRIS) was defined as 100%, the variation of fluorescence level of a well added with final concentration 3 mM of glutamic acid alone was defined as 0%, and the activity of the compound was calculated by the following formula. activity (%)=(X−C)/(T−C)×100 • T: variation of fluorescence level of well added with final concentration 3 mM of glutamic acid and 300 μM cyclothiazide • C: variation of fluorescence level of well added with final concentration 3 mM of glutamic acid alone • X: variation of fluorescence level of well added with test compound

T1 sequence (P42261 19-906 isoform P42261-2 limits assumed): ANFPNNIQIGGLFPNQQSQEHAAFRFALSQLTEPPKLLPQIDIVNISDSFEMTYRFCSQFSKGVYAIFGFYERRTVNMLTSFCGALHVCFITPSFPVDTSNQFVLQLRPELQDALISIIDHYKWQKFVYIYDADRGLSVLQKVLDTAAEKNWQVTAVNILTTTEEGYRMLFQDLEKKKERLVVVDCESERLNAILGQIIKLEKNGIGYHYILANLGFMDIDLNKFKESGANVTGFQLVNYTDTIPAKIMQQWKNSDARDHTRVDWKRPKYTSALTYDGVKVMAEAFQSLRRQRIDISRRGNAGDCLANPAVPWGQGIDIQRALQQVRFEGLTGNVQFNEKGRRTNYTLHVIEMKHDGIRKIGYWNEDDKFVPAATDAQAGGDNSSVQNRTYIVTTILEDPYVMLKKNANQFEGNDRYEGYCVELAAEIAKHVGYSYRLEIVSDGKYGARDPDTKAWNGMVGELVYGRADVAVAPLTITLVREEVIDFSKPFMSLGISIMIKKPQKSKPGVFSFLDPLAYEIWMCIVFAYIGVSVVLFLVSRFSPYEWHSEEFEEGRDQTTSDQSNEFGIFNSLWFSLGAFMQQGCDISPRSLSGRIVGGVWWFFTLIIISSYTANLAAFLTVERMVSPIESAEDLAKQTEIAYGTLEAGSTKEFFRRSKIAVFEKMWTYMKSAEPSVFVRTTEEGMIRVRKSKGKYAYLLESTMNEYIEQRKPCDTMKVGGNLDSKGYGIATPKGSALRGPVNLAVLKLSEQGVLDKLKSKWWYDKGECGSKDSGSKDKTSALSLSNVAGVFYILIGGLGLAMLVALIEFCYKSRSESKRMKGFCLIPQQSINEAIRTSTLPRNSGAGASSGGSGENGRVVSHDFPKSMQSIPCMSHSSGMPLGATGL
T1 sequence (Q9Y698 whole entry partner): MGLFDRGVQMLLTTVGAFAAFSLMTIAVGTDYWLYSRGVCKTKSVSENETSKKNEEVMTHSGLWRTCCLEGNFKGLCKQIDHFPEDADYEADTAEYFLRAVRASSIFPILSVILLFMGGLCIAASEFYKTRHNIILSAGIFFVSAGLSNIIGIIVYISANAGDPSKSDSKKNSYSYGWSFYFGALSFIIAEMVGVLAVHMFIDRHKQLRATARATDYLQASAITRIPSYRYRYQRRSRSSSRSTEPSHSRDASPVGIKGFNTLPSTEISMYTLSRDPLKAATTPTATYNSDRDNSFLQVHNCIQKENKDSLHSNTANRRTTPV

| Structure (SMILES) | activation at 30 µM [%] | hGluR1 flip/30 μM (%) |
| --- | --- | --- |
| O=C(c1ccc(-c2cccn3c(=O)cc(C(F)(F)F)nc23)cc1)N1CCC(O)(C(F)(F)F)C1 (stereo not shown) [Example 6, 9-(4-((3-hydroxy-3-(trifluoromethyl)pyrrolidin-1-yl)carbonyl)phenyl)-2 (trifluoromethyl)-4H-pyrido[1,2-a]pyrimidin-4-one] | – | 88.7 |
| CCC1(O)CCN(C(=O)c2ccc(-c3cccn4c(=O)cc(C(F)(F)F)nc34)cc2)CC1 [Example 8, 9-(4-((4-ethyl-4-hydroxypiperidin-1-yl)carbonyl)phenyl)-2-(trifluoromethyl)-4H-pyrido[1,2-a]pyrimidin-4-one] | 79.6 | – |
| O=C(c1ccc(-c2cccn3c(=O)cc(C(F)(F)F)nc23)cc1)N1CCC(O)(C(F)(F)F)C1 (stereo not shown) [Example 15, 9-(4-((3-hydroxy-3-(trifluoromethyl)pyrrolidin-1-yl)carbonyl)phenyl)-2-(trifluoromethyl)-4H-pyrido[1,2-a]pyrimidin-4-one] | 79.9 | – |
| O=C(c1ccc(-c2cccn3c(=O)cc(C(F)(F)F)nc23)cc1)N1CCC(O)(C(F)(F)F)C1 (stereo not shown) [Example 16, 9-(4-((3-hydroxy-3-(trifluoromethyl)pyrrolidin-1-yl)carbonyl)phenyl)-2-(trifluoromethyl)-4H-pyrido[1,2-a]pyrimidin-4-one] | – | 88.3 |
| CCN(CCC#N)C(=O)c1ccc(-c2cccn3c(=O)c(Br)c(C(F)(F)F)nc23)cc1 [Example 25, 4-(3-bromo-4-oxo-2-(trifluoromethyl)-4H-pyrido[1,2-a]pyrimidin-9-yl)-N-(2-cyanoethyl)-N-ethylbenzamide] | 91 | – |
| CC1(O)CCN(C(=O)c2ccc(-c3cccn4c(=O)cc(C(F)(F)F)nc34)cc2)C1 (stereo not shown) [Example 28, 9-(4-((3-hydroxy-3-methylpyrrolidin-1-yl)carbonyl)phenyl)-2-(trifluoromethyl)-4H-pyrido[1,2-a]pyrimidin-4-one] | 79.3 | – |
| O=C(NCC(F)(F)F)c1ccc(-c2cccn3c(=O)c(Cl)c(C(F)(F)F)nc23)cc1 [Example 35, 4-(3-chloro-4-oxo-2-(trifluoromethyl)-4H-pyrido[1,2-a]pyrimidin-9-yl)-N-(2,2,2-trifluoroethyl)benzamide] | 79.8 | – |
| N#CC1CCCN(C(=O)c2ccc(-c3cccn4c(=O)c(Cl)c(C(F)(F)F)nc34)cc2)C1 (stereo not shown) [Example 38, 1-(4-(3-chloro-4-oxo-2-(trifluoromethyl)-4H-pyrido[1,2-a]pyrimidin-9-yl)benzoyl)piperidine-3-carbonitrile] | 99.3 | – |
| CN(CCC#N)C(=O)c1ccc(-c2cccn3c(=O)c(Cl)c(C(F)(F)F)nc23)cc1 [Example 39, 4-(3-chloro-4-oxo-2-(trifluoromethyl)-4H-pyrido[1,2-a]pyrimidin-9-yl)-N-(2-cyanoethyl)-N-methylbenzamide] | 85.9 | – |
| O=C(NCC(F)F)c1ccc(-c2cccn3c(=O)cc(C(F)(F)F)nc23)cc1F [Example 42] | 83.6 | – |
| O=C(NCC(F)(F)F)c1ccc(-c2cccn3c(=O)cc(C(F)(F)F)nc23)cc1F [Example 43, 2-fluoro-4-(4-oxo-2-(trifluoromethyl)-4H-pyrido[1,2-a]pyrimidin-9-yl)-N-(2,2,2-trifluoroethyl)benzamide] | 84.1 | – |
| O=C(c1ccc(-c2cccn3c(=O)cc(C(F)(F)F)nc23)cc1F)N1CCOCC1 [Example 44, 9-(3-fluoro-4-(morpholin-4-ylcarbonyl)phenyl)-2-(trifluoromethyl)-4H-pyrido[1,2-a]pyrimidin-4-one] | 73.8 | – |
| Cc1c(C(F)(F)F)nc2c(-c3ccc(C(=O)N4CCOCC4)c(F)c3)cccn2c1=O [Example 45, 9-(3-fluoro-4-(morpholin-4-ylcarbonyl)phenyl)-3-methyl-2-(trifluoromethyl)-4H-pyrido[1,2-a]pyrimidin-4-one] | 82.6 | – |

Other lines, results leading:

| activation at 30 µM [%] | hGluR1 flip/30 μM (%) | Structure (SMILES) |
| --- | --- | --- |
| 103 | – | CN(CC(F)F)C(=O)c1ccc(-c2cccn3c(=O)cc(C(F)(F)F)nc23)cc1 [Example 2, N-(2,2-difluoroethyl)-N-methyl-4-(4-oxo-2-(trifluoromethyl)-4H-pyrido[1,2-a]pyrimidin-9-yl)benzamide] |
| 74.8 | – | O=C(c1ccc(-c2cccn3c(=O)cc(C(F)(F)F)nc23)cc1)N1CCCC(F)(F)C1 [Example 3, 9-(4-((3,3-difluoropiperidin-1-yl)carbonyl)phenyl)-2-(trifluoromethyl)-4H-pyrido[1,2-a]pyrimidin-4-one] |
| 94 | – | CC1(O)CCN(C(=O)c2ccc(-c3cccn4c(=O)cc(C(F)(F)F)nc34)cc2)CC1 [Example 7, 9-(4-((4-hydroxy-4-methylpiperidin-1-yl)carbonyl)phenyl)-2-(trifluoromethyl)-4H-pyrido[1,2-a]pyrimidin-4-one] |
| 72.7 | – | O=C(c1ccc(-c2cccn3c(=O)cc(C(F)(F)F)nc23)cc1)N1CCC(O)C(F)(F)C1 (stereo not shown) [Example 10, 9-(4-((3,3-difluoro-4-hydroxypiperidin-1-yl)carbonyl)phenyl)-2-(trifluoromethyl)-4H-pyrido[1,2-a]pyrimidin-4-one] |
| 95.2 | – | O=C(c1ccc(-c2cccn3c(=O)c(Cl)c(C(F)(F)F)nc23)cc1)N1CCOCC1 [Example 17, 3-chloro-9-(4-(morpholin-4-ylcarbonyl)phenyl)-2-(trifluoromethyl)-4H-pyrido[1,2-a]pyrimidin-4-one] |
| 79.4 | – | O=C(c1ccc(-c2cccn3c(=O)c(Br)c(C(F)(F)F)nc23)cc1)N1CCOC(F)(F)C1 [Example 19, 3-bromo-9-(4-((2,2-difluoromorpholin-4-yl)carbonyl)phenyl)-2-(trifluoromethyl)-4H-pyrido[1,2-a]pyrimidin-4-one] |
| 83.5 | – | Cc1c(C(F)(F)F)nc2c(-c3ccc(C(=O)N4CCOC(C(F)F)C4)cc3)cccn2c1=O (stereo not shown) [Example 23, 9-(4-((2-(difluoromethyl)morpholin-4-yl)carbonyl)phenyl)-3-methyl-2-(trifluoromethyl)-4H-pyrido[1,2-a]pyrimidin-4-one] |
| 76.9 | – | Cc1c(C(F)(F)F)nc2c(-c3ccc(C(=O)N4CC(F)(F)C4)cc3)cccn2c1=O [Example 24, 9-(4-((3,3-difluoroazetidin-1-yl)carbonyl)phenyl)-3-methyl-2-(trifluoromethyl)-4H-pyrido[1,2-a]pyrimidin-4-one] |
| 74.9 | – | O=C(NCC(F)F)c1ccc(-c2cccn3c(=O)cc(C(F)(F)F)nc23)cc1 [Example 26, N-(2,2-difluoroethyl)-4-(4-oxo-2-(trifluoromethyl)-4H-pyrido[1,2-a]pyrimidin-9-yl)benzamide] |
| 79.4 | – | O=C(c1ccc(-c2cccn3c(=O)cc(C(F)(F)F)nc23)cc1)N1CCC(O)(C(F)(F)F)CC1 [Example 33, 9-(4-((4-hydroxy-4-(trifluoromethyl)piperidin-1-yl)carbonyl)phenyl)-2-(trifluoromethyl)-4H-pyrido[1,2-a]pyrimidin-4-one] |
| 101 | – | O=C(c1ccc(-c2cccn3c(=O)cc(C(F)(F)F)nc23)cc1)N1CCCC(O)(C(F)(F)F)C1 (stereo not shown) [Example 36, 9-(4-((3-hydroxy-3-(trifluoromethyl)piperidin-1-yl)carbonyl)phenyl)-2-(trifluoromethyl)-4H-pyrido[1,2-a]pyrimidin-4-one] |
| 74.9 | – | Cc1c(C(F)(F)F)nc2c(-c3ccc(C(=O)N4CCOCC4)cc3)cccn2c1=O [Example 37, 3-methyl-9-(4-(morpholin-4-ylcarbonyl)phenyl)-2-(trifluoromethyl)-4H-pyrido[1,2-a]pyrimidin-4-one] |
